Test results: PubChem BioAssay (NCI)
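Five concentrations, 48 hours, 96-well plates. TGI marks complete inhibition of growth.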

Key:
Experiment in all cases: growth of human tumour cells (NCI), 48 h
SK-MEL-28 melanoma = system: SK-MEL-28 melanoma
ACHN renal = system: ACHN renal
HCT-116 colon = system: HCT-116 colon
NCI/ADR-RES ovarian = system: NCI/ADR-RES ovarian
KM12 colon = system: KM12 colon
COLO 205 colon = system: COLO 205 colon
BT-549 breast = system: BT-549 breast
MCF7 breast = system: MCF7 breast
K-562 leukemia = system: K-562 leukemia
UACC-257 melanoma = system: UACC-257 melanoma
A498 renal = system: A498 renal
UACC-62 melanoma = system: UACC-62 melanoma
MDA-MB-435 = system: MDA-MB-435
PC-3 prostate = system: PC-3 prostate
T-47D breast = system: T-47D breast
OVCAR-3 ovarian = system: OVCAR-3 ovarian
OVCAR-8 ovarian = system: OVCAR-8 ovarian
HCC-2998 colon = system: HCC-2998 colon
HCT-15 colon = system: HCT-15 colon
A549 NSCLC = system: A549 NSCLC
SN12C renal = system: SN12C renal
EKVX NSCLC = system: EKVX NSCLC
SF-539 CNS = system: SF-539 CNS
SK-MEL-2 melanoma = system: SK-MEL-2 melanoma
SW-620 colon = system: SW-620 colon
TK-10 renal = system: TK-10 renal
DU-145 prostate = system: DU-145 prostate
RXF 393 renal = system: RXF 393 renal
RPMI-8226 leukemia = system: RPMI-8226 leukemia
MOLT-4 leukemia = system: MOLT-4 leukemia
SK-MEL-5 melanoma = system: SK-MEL-5 melanoma
M14 melanoma = system: M14 melanoma
SF-295 CNS = system: SF-295 CNS
CAKI-1 renal = system: CAKI-1 renal
SNB-75 CNS = system: SNB-75 CNS
U251 CNS = system: U251 CNS
OVCAR-5 ovarian = system: OVCAR-5 ovarian
SK-OV-3 ovarian = system: SK-OV-3 ovarian
MDA-N = system: MDA-N
UO-31 renal = system: UO-31 renal
IGROV1 ovarian = system: IGROV1 ovarian
NCI-H522 lung = system: NCI-H522 lung
NCI-H226 lung = system: NCI-H226 lung
SF-268 CNS = system: SF-268 CNS
OVCAR-4 ovarian = system: OVCAR-4 ovarian
HS 578T breast = system: HS 578T breast
786-0 renal = system: 786-0 renal
SR leukemia = system: SR leukemia
NCI-H460 lung = system: NCI-H460 lung
MALME-3M melanoma = system: MALME-3M melanoma
HOP-62 NSCLC = system: HOP-62 NSCLC
CCRF-CEM leukemia = system: CCRF-CEM leukemia
LOX IMVI melanoma = system: LOX IMVI melanoma
HOP-92 NSCLC = system: HOP-92 NSCLC
MDA-MB-231 breast = system: MDA-MB-231 breast
SNB-19 CNS = system: SNB-19 CNS
NCI-H23 lung = system: NCI-H23 lung
HT29 colon = system: HT29 colon

O=c1[nH]c(=O)n(C2CC(O)C(CO)O2)c2nc3cc4ccccc4cc3nc12 (centres undefined)
TGI (SK-MEL-28 melanoma): > 100 µM
TGI (ACHN renal): > 100 µM
TGI (HCT-116 colon): > 100 µM
TGI (NCI/ADR-RES ovarian): > 100 µM
TGI (KM12 colon): > 100 µM
TGI (COLO 205 colon): > 100 µM
TGI (BT-549 breast): > 100 µM
TGI (MCF7 breast): > 100 µM
TGI (K-562 leukemia): > 100 µM
TGI (UACC-257 melanoma): > 100 µM
TGI (A498 renal): > 100 µM
TGI (UACC-62 melanoma): > 100 µM
TGI (MDA-MB-435): > 100 µM
TGI (PC-3 prostate): > 100 µM
TGI (T-47D breast): > 100 µM
TGI (OVCAR-3 ovarian): > 100 µM
TGI (OVCAR-8 ovarian): > 100 µM
TGI (HCC-2998 colon): > 100 µM
TGI (HCT-15 colon): > 100 µM
TGI (A549 NSCLC): > 100 µM
TGI (SN12C renal): > 100 µM
TGI (EKVX NSCLC): > 100 µM
TGI (SF-539 CNS): > 100 µM
TGI (SK-MEL-2 melanoma): > 100 µM
TGI (SW-620 colon): > 100 µM
TGI (TK-10 renal): > 100 µM
TGI (DU-145 prostate): > 100 µM
TGI (RXF 393 renal): > 100 µM
TGI (RPMI-8226 leukemia): > 100 µM
TGI (MOLT-4 leukemia): > 100 µM
TGI (SK-MEL-5 melanoma): > 100 µM
TGI (M14 melanoma): > 100 µM
TGI (SF-295 CNS): > 100 µM
TGI (CAKI-1 renal): > 100 µM
TGI (SNB-75 CNS): > 100 µM
TGI (U251 CNS): > 100 µM
TGI (OVCAR-5 ovarian): > 100 µM
TGI (SK-OV-3 ovarian): > 100 µM
TGI (MDA-N): > 100 µM
TGI (UO-31 renal): > 100 µM
TGI (IGROV1 ovarian): > 100 µM
TGI (NCI-H522 lung): > 100 µM
TGI (NCI-H226 lung): > 100 µM
TGI (SF-268 CNS): > 100 µM
TGI (OVCAR-4 ovarian): > 100 µM
TGI (HS 578T breast): > 100 µM
TGI (786-0 renal): > 100 µM
TGI (SR leukemia): > 100 µM
TGI (NCI-H460 lung): > 100 µM
TGI (MALME-3M melanoma): > 100 µM
TGI (HOP-62 NSCLC): > 100 µM
TGI (CCRF-CEM leukemia): > 100 µM
TGI (LOX IMVI melanoma): > 100 µM
TGI (HOP-92 NSCLC): > 100 µM
TGI (MDA-MB-231 breast): > 100 µM
TGI (SNB-19 CNS): > 100 µM
TGI (NCI-H23 lung): > 100 µM

Oc1ccc2ccccc2c1CN(Cc1c(O)ccc2ccccc12)C1CCCCC1
TGI (SK-MEL-28 melanoma): 51.9 µM
TGI (ACHN renal): 34.7 µM
TGI (HCT-116 colon): 29.3 µM
TGI (NCI/ADR-RES ovarian): 54.9 µM
TGI (KM12 colon): > 100 µM
TGI (COLO 205 colon): 29.6 µM
TGI (HT29 colon): 39.6 µM
TGI (BT-549 breast): 42.7 µM
TGI (MCF7 breast): 29.3 µM
TGI (K-562 leukemia): 53.5 µM
TGI (UACC-257 melanoma): 28.7 µM
TGI (A498 renal): 71.6 µM
TGI (UACC-62 melanoma): 32.9 µM
TGI (MDA-MB-435): 43.6 µM
TGI (PC-3 prostate): 38.2 µM
TGI (T-47D breast): > 100 µM
TGI (OVCAR-3 ovarian): 41.7 µM
TGI (OVCAR-8 ovarian): 44.6 µM
TGI (HCC-2998 colon): 27.7 µM
TGI (HCT-15 colon): 45.4 µM
TGI (A549 NSCLC): 44.4 µM
TGI (SN12C renal): 28 µM
TGI (EKVX NSCLC): 29.7 µM
TGI (SF-539 CNS): 29.4 µM
TGI (SK-MEL-2 melanoma): 67.1 µM
TGI (SW-620 colon): 48.9 µM
TGI (TK-10 renal): 36.9 µM
TGI (DU-145 prostate): 42.8 µM
TGI (RXF 393 renal): 46.7 µM
TGI (RPMI-8226 leukemia): 97.2 µM
TGI (MOLT-4 leukemia): 41.4 µM
TGI (SK-MEL-5 melanoma): 28.1 µM
TGI (M14 melanoma): 31.3 µM
TGI (SF-295 CNS): > 100 µM
TGI (CAKI-1 renal): 33.6 µM
TGI (SNB-75 CNS): 50.5 µM
TGI (U251 CNS): 45.2 µM
TGI (OVCAR-5 ovarian): > 100 µM
TGI (SK-OV-3 ovarian): > 100 µM
TGI (MDA-N): 28.7 µM
TGI (UO-31 renal): 38.1 µM
TGI (IGROV1 ovarian): 27.6 µM
TGI (NCI-H522 lung): 27.1 µM
TGI (SF-268 CNS): 27 µM
TGI (OVCAR-4 ovarian): 47.1 µM
TGI (HS 578T breast): 79 µM
TGI (786-0 renal): 30.7 µM
TGI (SR leukemia): 83.9 µM
TGI (NCI-H460 lung): 51 µM
TGI (MALME-3M melanoma): 29.2 µM
TGI (HOP-62 NSCLC): > 100 µM
TGI (CCRF-CEM leukemia): > 100 µM
TGI (LOX IMVI melanoma): 28.2 µM
TGI (HOP-92 NSCLC): 37.1 µM
TGI (MDA-MB-231 breast): 44.1 µM
TGI (SNB-19 CNS): 90.2 µM
TGI (NCI-H23 lung): 31.5 µM
